Publication PMC9953885 (Biosensors, 2023)
Structures can show the parent of a compound that is named as a salt.

Target: T1, human pancreatic lipase (hPL) (Homo sapiens, UniProt P16233)
T1 construct: gene PNLIP
T1 sequence (P16233 17-465): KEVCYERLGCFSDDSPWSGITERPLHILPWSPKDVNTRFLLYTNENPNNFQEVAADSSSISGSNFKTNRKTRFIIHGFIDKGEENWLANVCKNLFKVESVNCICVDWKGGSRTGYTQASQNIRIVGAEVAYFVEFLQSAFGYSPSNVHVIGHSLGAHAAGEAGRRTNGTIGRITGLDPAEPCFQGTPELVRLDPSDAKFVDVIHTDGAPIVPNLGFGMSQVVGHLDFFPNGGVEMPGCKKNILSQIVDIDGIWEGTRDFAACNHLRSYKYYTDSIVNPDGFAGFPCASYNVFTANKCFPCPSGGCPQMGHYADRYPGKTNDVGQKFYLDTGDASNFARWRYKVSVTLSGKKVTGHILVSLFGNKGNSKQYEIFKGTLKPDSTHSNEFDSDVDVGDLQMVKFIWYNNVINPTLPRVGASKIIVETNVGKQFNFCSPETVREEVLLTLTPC
Details: 10 µM; inhibitor
Method: First, we evaluated the inhibitory effect of 94 natural products derived from herbs and 94 drugs on hPL. In our high-throughput screening system, 1 ug/mL hPL was used, and the final concentration of the 94 natural products derived from herbs and 94 drugs used was 10 μM. Other conditions were the same as in the selectivity experiments. […] RLE was incubated with hPL and various enzymes, such as hCES1A, hCES2A, CA, AchE, BchE, 5-HKE, lysozyme, trypsin, thrombin, α-CT, FAP, PREP, pepsin, α-amylase, plasmin, notum and hSA, in a 100 µL incubation mixture consisting of Tris-HCl (pH = 7.4, 25 mM), NaCl (150 mM), CaCl2 (1 mM) and porcine bile salt (0.1 mg/mL) at a concentration of 1.5 µg/mL. The reaction was initiated by adding RLE to the preincubated enzyme mixture at 37 °C, and metabolite formation was determined by measuring the fluorescence intensity of resorufin at 590 nm. In addition, several amino acids (IIe, His, Trp, Val, Leu, Tyr, Ala, Thr, Pro, Asp, Lys, Met, Cys, Ser, Phe, Gly, Glu and Gln), ions (Ni^2+, Ca^2+, Na^+, K^+, Cu^2+, Zn^2+, Mg^2+, NH4^+, Cu^+, Fe^2+ and CN^-) and GSH were measured. The concentration of these interfering factors was 5 μM. […] In this case, a visual high-throughput assay was established to screen hPL inhibitors, using RLE as a fluorogenic substrate in a 96-well microplate.

Row | SMILES | % of control remaining
1 | O=c1c(O)c(-c2ccc(O)c(O)c2)oc2cc(O)cc(O)c12 [Quercetin] | 47.29%
2 | O=C1C[C@@H](c2ccc(O[C@@H]3O[C@H](CO)[C@@H](O)[C@H](O)[C@H]3O)cc2)Oc2cc(O)ccc21 [Liquiritin] | 105.77%
3 | C[C@@H]1C(=O)O[C@H]2[C@H](O)[C@@]34O[C@@H]5OC(=O)[C@H](O)[C@@]56[C@H](C(C)(C)C)[C@H](O)C(OC3=O)[C@]64[C@@]12O (stereo partly shown) [Ginkgolide C] | 106.22%
4 | CC[C@H](C)C(=O)O[C@H]1C[C@@H](C)C=C2C=C[C@H](C)[C@H](CC[C@@H]3C[C@@H](O)CC(=O)O3)[C@H]21 [Lovastatin] | 80.96%
5 | C=C1C(=O)[C@]23[C@H](O)[C@H]1CC[C@H]2[C@@]12CO[C@]3(O)[C@@H](O)[C@@H]1C(C)(C)CC[C@@H]2O [Oridonin] | 66.82%
6 | O=C(O)/C=C/c1ccc(O)c(O)c1 [Caffeic acid] | 71.45%
7 | O=c1cc(-c2ccccc2)oc2cc(O)c(O)c(O)c12 [Baicalein] | 48.80%
8 | COCCc1ccc(OCC(O)CNC(C)C)cc1 (stereo not shown) [Metoprolol tartrate] | 135.23%
9 | Oc1cc(O)c2c(c1)OC(c1ccc(O)c(O)c1)C(OC1(c3ccc(O)c(O)c3)Oc3cc(O)cc(O)c3C(O)C1O)C2 (stereo not shown) [Procyanidin] | 5.72%
10 | CC(C)(C)NCC(O)c1cc(O)cc(O)c1 (stereo not shown) [Terbutaline] | 108.89%
11 | C[C@@H]1O[C@@H](O[C@H]2[C@H](OC(=O)[C@]34CCC(C)(C)C[C@H]3C3=CC[C@@H]5[C@@]6(C)C[C@H](O)[C@H](O[C@@H]7O[C@H](CO)[C@@H](O)[C@H](O)[C@H]7O)C(CO)(CO)[C@@H]6CC[C@@]5(C)[C@]3(C)C[C@H]4O)OC[C@H](O)[C@@H]2O)[C@H](O)[C@H](O)[C@H]1O[C@@H]1OC[C@@H](O)[C@H](O[C@@H]2OC[C@](O)(CO)[C@H]2O)[C@H]1O [Platycodin D] | 89.14%
12 | Nc1nnc(-c2cccc(Cl)c2Cl)c(N)n1 [Lamotrigine] | 84.88%
13 | COc1cc2c(cc1OC)-c1cc3ccc(OC)c(OC)c3c[n+]1CC2 [Palmatine chloride] | 87.01%
14 | O=C(O)Cc1ccccc1Nc1c(Cl)cccc1Cl [diclofenzc] | 97.62%
15 | CC(=O)Nc1ccc(OC(=O)c2ccccc2OC(C)=O)cc1 [Benorilate] | 76.99%
16 | COc1c(O)cc(O)c2c(=O)cc(-c3ccccc3)oc12 [Wogonin] | 106.17%
17 | CCC(=O)O[C@H]1CC[C@H]2[C@@H]3CCC4=CC(=O)CC[C@]4(C)[C@H]3CC[C@]12C [Testosterone propionate] | 65.37%
18 | C#C[C@]1(O)CC[C@H]2[C@@H]3CCC4=CC(=O)CCC4=C3C=C[C@@]21CC [Gestrinone] | 66.72%
19 | CC(C)Oc1ccc2c(=O)c(-c3ccccc3)coc2c1 [Ipriflavone] | 84.50%
20 | COc1ccc(-c2coc3cc(O)cc(O)c3c2=O)cc1 [5,7-Dihydrox-4'-methoxyisoflavone] | 100.90%
21 | O=C1c2c(O)cc(O)cc2O[C@H](c2ccc(O)cc2)[C@H]1O [Dihydrokaempferol] | 109.31%
22 | NS(=O)(=O)c1cc(C(=O)O)c(NCc2ccco2)cc1Cl [Furosemide] | 100.00%
23 | O=c1c(O[C@@H]2O[C@H](CO)[C@@H](O)[C@H](O)[C@H]2O)c(-c2ccc(O)cc2)oc2cc(O)cc(O)c12 [Astragalin] | 107.88%
24 | CN[C@H](CC(C)C)C(=O)N[C@H]1C(=O)N[C@@H](CC(N)=O)C(=O)N[C@H]2C(=O)N[C@H]3C(=O)N[C@H](C(=O)N[C@H](C(=O)O)c4cc(O)cc(O)c4-c4cc3ccc4O)[C@H](O)c3ccc(c(Cl)c3)Oc3cc2cc(c3O[C@@H]2O[C@H](CO)[C@@H](O)[C@H](O)[C@H]2O[C@H]2C[C@](C)(N)[C@H](O)[C@H](C)O2)Oc2ccc(cc2Cl)[C@H]1O [Vancomycin] | 96.04%
25 | Cc1cc(NS(=O)(=O)c2ccc(N)cc2)no1 [Sulfamethoxazole] | 98.83%

Row | SMILES | % of control remaining
26 | O=C1C[C@@H](c2ccccc2)Oc2cc(O)cc(O)c21 [Pinocembrin] | 91.25%
27 | COC(=O)N[C@H](C(=O)N[C@@H](Cc1ccccc1)[C@@H](O)CN(Cc1ccc(-c2ccccn2)cc1)NC(=O)[C@@H](NC(=O)OC)C(C)(C)C)C(C)(C)C [Atazanavir] | 79.92%
28 | COc1ccc(-c2cc(=O)c3c(O)c(OC)c(O)c(OC)c3o2)cc1 [Lysionotin] | 84.30%
29 | COC(=O)C1=CO[C@@H](O)[C@@H]2C(CO)=CC[C@H]12 [Genipin] | 99.28%
30 | CCN(CC)CCNC(=O)c1cc(S(C)(=O)=O)ccc1OC [Tiapride] | 108.20%
31 | O=c1c(O)c(-c2ccc(O)cc2O)oc2cc(O)cc(O)c12 [Morin hydrate] | 96.10%
32 | CC1(C)OC(=O)C=C[C@]2(C)[C@H]3CC[C@@]4(C)[C@H](c5ccoc5)OC(=O)[C@H]5O[C@]54[C@]3(C)C(=O)C[C@@H]12 [Obacunon] | 79.60%
33 | CCC/C=C1\OC(=O)C2=C1CCC=C2 [Z-Ligustilide] | 83.60%
34 | CN(C/C=C/C#CC(C)(C)C)Cc1cccc2ccccc12 [Terbinafine Hydrochloride] | 91.01%
35 | C=CC(=O)Nc1cc(Nc2nccc(-c3cn(C)c4ccccc34)n2)c(OC)cc1N(C)CCN(C)C [AZD-9291] | 92.69%
36 | O=C(NC[C@H]1CN(c2ccc(N3CCOCC3=O)cc2)C(=O)O1)c1ccc(Cl)s1 [Rivaroxaban] | 118.66%
37 | CC(C)=CCOc1c2ccoc2cc2oc(=O)ccc12 [Isoimperatorin] | 72.90%
38 | Cc1cn([C@H]2C[C@H](N=[N+]=[N-])[C@@H](CO)O2)c(=O)[nH]c1=O [Zidovudine] | 73.04%
39 | Nc1ccccc1NC(=O)c1ccc(CNC(=O)OCc2cccnc2)cc1 [Entinostat] | 102.02%
40 | COc1cc(/C=C/C(=O)CC(=O)/C=C/c2ccc(O)c(OC)c2)ccc1O [Curcumin] | 75.83%
41 | O=P1(N(CCCl)CCCl)NCCCO1 (stereo not shown) [Cyclophosphamide] | 91.59%
42 | CC(=O)NC[C@H]1CN(c2ccc(N3CCOCC3)c(F)c2)C(=O)O1 [Linezolid] | 91.81%
43 | Nc1ccn([C@@H]2O[C@H](CO)[C@@H](O)C2(F)F)c(=O)n1 [Gemcitabine] | 105.06%
44 | COc1cc(-c2oc3cc(O)cc(O)c3c(=O)c2O[C@@H]2O[C@H](CO)[C@@H](O)[C@H](O)[C@H]2O)ccc1O [Isorhamnetin-3-glucoside] | 93.93%
45 | Cc1ncc([N+](=O)[O-])n1CCO [Metronidazole] | 78.49%
46 | COC(=O)C[C@](O)(CCCC(C)(C)O)C(=O)O[C@@H]1C(OC)=C[C@]23CCCN2CCc2cc4c(cc2[C@H]13)OCO4 [Homoharringtonine] | 74.77%
47 | COc1c2occc2cc2ccc(=O)oc12 [8-Methoxypsoralen] | 90.65%
48 | O=C1c2c(O)cc(O)cc2O[C@H](c2ccc(O)c(O)c2)[C@H]1O [TGaxifolin] | 97.17%
49 | NC(=O)N1c2ccccc2C=Cc2ccccc21 [Carbamazepine] | 104.15%
